Experimental data taken from US11267859B2, “GM-CSF mimetics and methods of making and using same” (The Regents of the University of Colorado, a body corporate, priority 2017, dated 2022).

Columns and labels:
TF-1 cells [1] = assay: ATPlite viability assay of GM-CSF-dependent TF-1 cells grown without GM-CSF; format: cell-based, human; conditions: for activity as a GM-CSF mimetic/agonist: summary statement citing FIGS. 1A-1B, FIGS. 2A-2C; for GM-CSF receptor agonist activity (cell viability, ATPlite): TF-1 cells without GM-CSF, 1 nM, 10 nM or 50 nM
Experimental: FIGS. 1A-1B comprise bar graphs illustrating use of the ATPlite assay to examine the viability of the GM-CSF-dependent human erythroleukemic cell line TF-1 (Hansen, et al., 2008, Cell 134(3):496-507) treated with GM-CSF mimetics of the invention (M1, M5, or M6; 1 nM, 10, nM, or 50 nM). TF-1 cells grown in the absence of GM-CSF (control) served as a negative control, and TF-1 cells grown in the presence of GM-CSF (GM-CSF; 0.7 nM) served as a positive control. […] Error bars represent standard error of the mean. *** indicates P<0.0001, * indicates P≤0.03, compared to control.
In order to determine whether a synthetic fragment of GM-CSF or a construct comprising a combination of GM-CSF fragments linked together using PEG linkers is an agonist of the GM-CSF receptor, human cell lines dependent on GM-CSF for proliferation were employed: specifically, the human hematopoietic cell line TF-1 (Hansen, et al., 2008, Cell 134(3): 496-507) and the human cell line MOTE (Monfardini, et al., 2002, Curr Pharm Des 8(24):2185-2199) (both obtained from American Type Culture Collection, or ATCC).
In experiments with the TF-1 cell line, it was determined whether the GM-CSF mimetics of the invention were sufficient to support cell growth and viability in the absence of GM-CSF. Specifically, the cells were grown in medium without GM-CSF (control) as a negative control, in medium supplemented with GM-CSF (GM-CSF; 0.7 nM) as a positive control, or in medium supplemented with one of the GM-CSF mimetics of the invention (i.e., M1, M5, or M6; 1 nM, 10 nM, or 50 nM; FIGS. 1A-1B). Cell viability was measured using the ATPlite assay (PerkinElmer) to determine whether the GM-CSF mimetics of the invention were capable of maintaining the viability of TF-1 cells, which require GM-CSF, thus providing a measure of agonist activity.

[2] = tested on: transgenic mice that express the human GM-CSF receptor (hGMR mice); assay: Blood neutrophil response in transgenic hGMR mice after subcutaneous injection for three days; format: in vivo, mouse; conditions: s.c.; for percentage of neutrophils at 72 h versus 0 h (paired T-test): three days, P<0.0019 for GM-CSF, P<0.0052 for M6
Experimental: FIGS. 3A-3B comprise a plot illustrating % change in neutrophil levels in blood from transgenic hGMR mice (Nishijima, et al., 1995, Mol. Biol. Cell 6(5):497-508) treated with saline (3 days) as a negative control, with human GM-CSF (hGM-CSF, 5 μg/day×3 days) as a positive control, with the GM-CSF mimetic M1 (M1 5 μg/day×3 days), or with the GM-CSF mimetic M6 (M6, 5 μg/day×3 days) (FIG. 3A). Each connected symbol represents an individual hGMR mouse pre- and post-treatment (0 h and 72 h, respectively). Error bars represent standard error of the mean. […] To determine whether the PEG-based GM-CSF mimetics of the invention are active in vivo, the GM-CSF mimetic molecules M1 and M6 were tested in transgenic mice that express the human GM-CSF receptor and are responsive to human GM-CSF, referred to herein as hGMR mice (Nishijima, et al., 1995, Mol. Biol. Cell 6(5):497-508). The hGMR mice were tested for their responses to M1 or M6. Specifically, the study included four groups of mice: (1) hGMR mice injected subcutaneously with saline (n=4 mice) as a negative control (Saline); (2) hGMR mice injected subcutaneously with commercial human GM-CSF ([…]; n=13 mice) as a positive control, because these mice should respond to human GM-CSF; (3) hGMR mice injected subcutaneously with M1 (5 μg/animal/day; n=5 mice); and (4) hGMR mice injected subcutaneously with M6 (5 μg/animal/day; n=6 mice) for three days. Blood samples were collected before the mice received any injections of saline, human GM-CSF, M1, or M6, and blood samples were also collected after the three days of injections. The percentage of neutrophils present in the blood post-treatment was measured by counting from whole blood smears. FIG. 3A illustrates trends in the percentages of neutrophils in individual mice from each of the four groups; each connected symbol represents an individual hGMR mouse pre- and post-treatment (0 h and 72 h, respectively). FIG. 3B compares the changes in the percentage of neutrophils over the course of the treatment for each of the four groups.

TF-1 cells [3] = assay: Live cell counts of GM-CSF-starved TF-1 cells by flow cytometry (DAPI); format: cell-based, human; conditions: TF-1 starved of GM-CSF 24 h, FIG. 2A
Experimental: FIGS. 2A-2C illustrate results of experiments wherein the GM-CSF-dependent human erythroleukemic cell line TF-1 was starved of GM-CSF for 24 h prior to treatment with media containing GM-CSF, with medium containing a GM-CSF mimetic (M1, M5 or M6; 10 nM or 100 nM), or with control medium lacking GM-CSF. The cells were fed fresh medium each day to replenish indicated concentrations (10 nM or 100 nM). Live cell counts from 3-4 replicates were plotted for each of the different conditions in FIG. 2A. […] The plots were gated by front and side scatter for singlets, then gated by DAPI, wherein DAPI-positive cells were dead and DAPI-negative cells were alive, and front scatter for live cells indicated in the selected region with the cell numbers represented below the plots.
Evaluation of ability of the GM-CSF mimetics to support cell growth was carried out by measuring cell number and cell viability by flow cytometry. The TF-1 cell line was first starved of GM-CSF for 24 h, and then plated in various conditions. […] At 72 h post-treatment, the cells were treated with DAPI (1 μg/ml) to label the nuclei of dead cells and were analyzed on a Yeti cell analyzer from Propel Labs. […] Each dot represents an individual measured cell, and increased color by “heat map” indicates a large group of cells with overlapping DAPI and forward scatter area.

| Substance | activity as a GM-CSF mimetic/agonist (TF-1 cells [1]) | percentage of neutrophils at 72 h versus 0 h (paired T-test) [2] | live cell counts versus negative control (TF-1 cells [3]; 10 nM or 100 nM replenished daily, 72 h post-treatment) | GM-CSF receptor agonist activity (cell viability, ATPlite) (TF-1 cells [1]; 24 h post-treatment (FIG. 1A)) | GM-CSF receptor agonist activity (cell viability, ATPlite) (TF-1 cells [1]; 48 h post-treatment (FIG. 1B)) | number of live cells versus control (TF-1 cells [3]; 100 nM replenished daily, P<0.042) | % change in neutrophils versus saline control group ([2]; 5 μg/animal/day for three days, student's T-test, P<0.046, FIG. 3B) |
| --- | --- | --- | --- | --- | --- | --- | --- |
| DFLLVIP (SEQ ID NO: 8) [Mimetic M2, human GM-CSF peptide fragment, aa 112-118 of mature GM-CSF] | active as a GM-CSF mimetic/agonist | – | – | – | – | – | – |
| GM-CSF: granulocyte-macrophage colony-stimulating factor; commercial human GM-CSF used as positive control | – | statistically significantly higher at 72 h than at 0 h | – | – | – | – | – |
| QPWEHVNAIQEAR (SEQ ID NO: 7) [Mimetic M1] | active as a GM-CSF mimetic/agonist | – | significant increase in the cell counts over the negative control | GM-CSF receptor agonist activity | the agonist effect is also replicated | – | – |
| QPWEHVNAIQEAR {PEG6} DFLLVIP {PEG6} DFLLVIP {PEG6} QPWEHVNAIQEAR [Mimetic M6] | – | statistically significantly higher at 72 h than at 0 h | – | GM-CSF receptor agonist activity | the agonist effect is also replicated | significantly lower than control | statistically significantly higher than that for the saline control group |
| QPWEHVNAIQEAR {PEG6} DFLLVIP {PEG6} QPWEHVNAIQEAR {PEG6} DFLLVIP [Mimetic M5] | – | – | – | GM-CSF receptor agonist activity | the agonist effect is also replicated | – | – |
